Results on five molecules are retold here after publication PMC7139703, “Thiopurine Derivative-Induced Fpg/Nei DNA Glycosylase Inhibition: Structural, Dynamic and Functional Insights” (International Journal of Molecular Sciences, 2020).

Each structure is given as a SMILES string. Like-named read-outs stand apart in the source and are kept apart here.

One test addresses T1, mvNei1 (Acanthamoeba polyphaga mimivirus, UniProt Q5UQ00).
T1 construct: 6His (C); made in house; host or cells: E. coli Rosetta2 (DE3)
Description: mvNei1 DNA glycosylase/AP lyase activity assay on DHU:G 24-mer duplex. The following applies: for effect on mvNei1 catalytic activity: 0.2 mM compound. Format: biochemical. Here is the method: Figure 4 Comparative analysis of the effect of 2TX and TXn on Fpg/Nei DNA glycosylases. Enzyme activities were measured as described in the Figure 1 legend using […] of a 5′-[^32P]-24-mer DNA duplex containing either an 8-oxoG opposite C for LlFpg or a […] (DHU) opposite G for hNeil1 and mvNei1. The DNA probe was incubated with the indicated protein concentration and 0.2 mM TXn compounds in the presence or absence of 1 mM dithiothreitol (DTT) and TCEP (a representative experiment is illustrated by the upper histograms). The DNA probe for EMSA was 0.1 nM of 5′-[^32P]-[…] DNA duplex containing THF with LlFpg and mvNei1 (bottom panels: gel autoradiography) with the indicated conditions and as described in ‘Materials and Methods’.
Fpg, hNeil1 and mvNei1 are bifunctional DNA glycosylases associated with concerted DNA glycosylase activity (cleavage of the N-glycosidic bond between the base lesion and the C1′ of the deoxyribose) and AP lyase activity that comprises the successive cleavage of the phosphodiester bonds at the 3′ and 5′ of the resulting abasic (AP) site, respectively (β, δ-elimination). Thus, AP sites that result from the excision of the damaged base are quantitatively converted into one nucleoside gap by these enzymes. The DNA glycosylase/AP lyase activity of each enzyme was measured by incubating 20 nM of 24-mer DNA duplexes ([OG:C] and [DHU:G] for Fpg and hNeil1/mvNei1, respectively) 5′-labeling on the damaged strand (see above) with 2 nM of Fpg, or mvNei1 for 15 min or, with 20 nM of hNeil1 for 30 min at 37 °C in 10 mM Tris-HCl, pH 7.6, 150 mM NaCl, 1 mM EDTA, 0.1 mg/mL BSA and 8% DMSO. The reaction was stopped by the addition of 1 volume of formamide loading buffer (96% formamide, 20 mM Tris/HCl pH 8.0 and 2 mM Na2EDTA), heated at 80 °C for 2 min and then analyzed by 20% Urea-PAGE, as previously described. […] Under these conditions, only 50% of the substrate is converted to the cleavage product (limiting enzyme concentration conditions). For an initial evaluation of the inhibitory effect, 40 µM of 2TX/TXn was used. The thio-compound was added to the reaction mixture before the final addition of the enzyme (competition condition). For the best identified inhibitors, a dose-response curve was generated and IC50^A determined (Figure 1 and Table 1).

For another test, the target named is T2, LlFpg/DNA complex C1 (Lactococcus lactis subsp. cremoris, UniProt P42371).
T2 construct: made in house; host or cells: E. coli BH540 (fpg defective)
Description: EMSA, Fpg DNA binding to 14-mer [THF:C] duplex, complex C1 (lesion recognition complex, Fpg/DNA 1/1). The following applies: for IC50: 0.1 nM 14-mer [THF:C], preformed complex; for IC50 / number of TXn equivalents per one protein equivalent for 50% inhibition of DNA binding activity, C1: 0.25 nM Fpg; for number of TXn equivalents per one protein equivalent for 50% inhibition of DNA binding activity, C1: value in parentheses; for effect on stability of complex C1 in the presence of TCEP: [1/1] molar ratio TCEP/compound (1 mM each), Figure S6. An excerpt:
To complement this study, we examined the effect of TXn on the binding of Fpg to a short DNA duplex containing a tetrahydrofuran (THF), a non-cleavable AP site analog. The enzyme specifically recognizes THF and forms a stable abortive complex with DNA [18, 34, 35, 36]. […] A representative titration experiment (with and without TCEP) of the 14-mer [THF:C] Fpg formed two stable complexes with this short DNA probe that were easily observed by EMSA: a high-affinity complex C1 corresponding to the lesion recognition complex (LRC), with nanomolar affinity, and a complex C2 only observed at higher Fpg concentrations. C2 results in C1 titration by a second Fpg molecule. This finding illustrates that the crystal structure of Fpg bound to 8-oxoG-carbanucleotide-containing DNA [38] (Figure S5). The stability of each preformed complex was then examined by EMSA in the presence of 2TX or TXn. […] The enzyme inactivation mediated by 2TX through ZnF oxidation that directly affects the DNA binding properties of the enzyme is also in agreement with this last observation.
Figure 2 The effect of 2TX and TXn on Fpg DNA binding to abasic site-containing DNA. A 14-mer DNA duplex containing a tetrahydrofurane (THF) site as an abasic site analog was incubated with a limiting Fpg concentration (0.25 nM) with and without increasing concentrations of TXn. Incubation mixtures were then analyzed by electrophoretic mobility shift assay (EMSA), as described in the ‘Materials and Methods’. (a) Titration experiments with (+) and without (-) 2 mM tris(2-carboxyethyl)phosphine hydrochloride (TCEP) C1 and C2 are for the [1/1] and [2/1] Fpg/DNA complexes, respectively (see detailed in the text). (b) Fpg DNA binding concentration-dependence for 2TX and the more efficient TXn inhibitors. A representative EMSA autoradiography with 0.25 nM of Fpg alone (lane no) and 0.5, 2.5, 5, 10, 20, 40, 50, 250, 1000 µM is shown in the upper panel. IC50app^B corresponds to the TXn amount needed to halve the C1 complex formation and was extracted from the dose-response curves (lower panel; Table 1).
The DNA binding activity was measured using EMSA [37]. Briefly, 0.1 nM of the 5′-labeled 14-mer [THF:C] (see above) was incubated with the enzyme at 4 °C for 30 min in 25 mM HEPES/NaOH (pH 7.5), 150 mM NaCl, 5% glycerol, 0.1 mg/mL BSA and 8% DMSO. The incubation mixture was then loaded onto a native 10% polyacrylamide gel (Acryl/Bis 19/1) and electrophoresed at 25 V/cm for 90 min at 4 °C. After electrophoresis, the gels were dried and exposed overnight for autoradiography using a Typhoon imager and quantified with ImageQuant software. To evaluate the inhibitor effect of 2TX/TXn on the DNA binding activity of each Fpg/Nei enzyme, we first determined the experimental conditions required to bind 50% of the DNA probes without an inhibitor in the presence of 8% DMSO (limiting enzyme concentration). Under these conditions, we obtained the half-maximal DNA binding 0.25, 7 and 5 nM of Fpg, hNeil1 and mvNei1. We used this limited enzyme concentrations to evaluate the inhibitor effect of 2TX/TXn on the enzyme DNA binding activity. This effect was determined by the addition of the thio-compound in the pre-equilibrium mixture of the enzyme and DNA probe (30 min) and incubated for an additional 30 min at 4 °C. For the best inhibitors of Fpg, a dose-response curve was established from at least three independent experiments and the IC50 was determined (IC50^B, Table 1).
For orientation: A gel shift assay detects complexes by their altered migration in electrophoresis.

Where [1] appears, read: IC50app^B (Fpg DNA binding) C1, DNA binding at 4 °C.
The mark [2] stands for this setting: catalytic activity at 37 °C, compound stock in DMSO, DHU:G 24-mer, read-out: IC50app^A (Fpg/Nei enzyme catalysis) mvNEI1.
Where [3] appears, read: DNA binding at 4 °C, read-out: IC50app^B (Fpg DNA binding) C1.

T1 sequence (Q5UQ00 whole entry): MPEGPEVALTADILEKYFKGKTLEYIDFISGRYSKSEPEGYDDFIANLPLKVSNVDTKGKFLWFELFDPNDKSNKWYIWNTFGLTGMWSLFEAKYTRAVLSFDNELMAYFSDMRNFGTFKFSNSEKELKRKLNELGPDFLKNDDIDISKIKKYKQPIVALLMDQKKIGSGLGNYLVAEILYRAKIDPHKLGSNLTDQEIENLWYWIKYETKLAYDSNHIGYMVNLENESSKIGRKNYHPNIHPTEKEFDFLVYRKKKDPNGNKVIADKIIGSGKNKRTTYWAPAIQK
T2 sequence (P42371 2-273, one chain of several): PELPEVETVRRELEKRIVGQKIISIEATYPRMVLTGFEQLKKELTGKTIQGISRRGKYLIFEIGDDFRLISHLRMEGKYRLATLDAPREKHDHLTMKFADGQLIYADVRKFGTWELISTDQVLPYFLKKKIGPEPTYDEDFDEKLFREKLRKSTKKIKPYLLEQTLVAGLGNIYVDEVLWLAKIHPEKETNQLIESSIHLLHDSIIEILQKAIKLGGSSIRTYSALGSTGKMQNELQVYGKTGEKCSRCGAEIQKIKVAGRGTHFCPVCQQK

As to `O=c1[nH]c2[nH]c(=S)[nH]c(=O)c2[nH]1` [TX14, 2-thio-6,8-dioxopurine], the IC50 is greater than 500 µM against mvNei1 and 25.1 ± 2.4 µM on LlFpg/DNA complex C1 (setting [1]). At LlFpg/DNA complex C1, the “number of TXn equivalents per one protein equivalent for 50% inhibition of DNA binding activity, C1” value came to 100.
In turn, `Nc1ncnc2[nH]c(S)nc12` [TX27] showed an IC50 at mvNei1 of 277 ± 18 µM. At LlFpg/DNA complex C1 (setting [1]), this molecule gave an IC50 of 44.2 ± 8 µM. Also, on LlFpg/DNA complex C1, the “effect on stability of complex C1 in the presence of TCEP” value is recorded as “remained stable” and the “number of TXn equivalents per one protein equivalent for 50% inhibition of DNA binding activity, C1” value came to 177.
With `O=c1[nH]c(=S)[nH]c2nc[nH]c12` [Compound 2TX, 2-thioxanthine, reference compound], at mvNei1 (Figure 4), the “effect on mvNei1 catalytic activity” value was “did not significantly affect”. Besides, the IC50 at mvNei1 (setting [2]) was greater than 500 µM; at LlFpg/DNA complex C1 (setting [3]) it was 113 ± 17 µM.
Turning to `FC(F)(F)c1nc(S)c2nc[nH]c2n1` [TX13, 2-trifluoromethyl-6-thiopurine], at mvNei1 (setting [2]), the IC50 was greater than 500 µM. Further, at LlFpg/DNA complex C1 (setting [3]), the IC50 came out at 6.1 ± 0.5 µM. On LlFpg/DNA complex C1, the “effect on stability of complex C1 in the presence of TCEP” value is recorded as “remained stable” and the “number of TXn equivalents per one protein equivalent for 50% inhibition of DNA binding activity, C1” value came to 98.
With `O=c1[nH]c(=S)[nH]c2[nH]c(=S)[nH]c12` [TX19], the “effect on mvNei1 catalytic activity” value on mvNei1 (Figure 4) is reported as “apparent inhibitory effects”. For the same molecule, on mvNei1 (1 mM TCEP (DTT to a lesser extent), Figure 4), the “inhibition of mvNei1 DNA binding and catalytic activities in the presence of TCEP” value was “suppressed”. The IC50 on mvNei1 (setting [2]) was found to be 124 ± 4 µM; on LlFpg/DNA complex C1 (setting [3]), 17.1 ± 2.4 µM. Further, the “number of TXn equivalents per one protein equivalent for 50% inhibition of DNA binding activity, C1” value on LlFpg/DNA complex C1 is given as 68.
